Assay results published in a melting point compilation (Tetko et al.; mined from patent text by program, amines drawn as free bases though some values may be those of a salt).

SMILES	melting point [°C]
Oc1ccccc1C=C1c2ccccc2CCc2ccccc21	56.9
CCN(CC)CCN1C(=O)c2cc(OC)c3[nH]c4ccc(O)cc4c3c2C1=O	226 to 228
O=C1c2ccccc2-c2c1c1ccccc1c(=O)n2CCCCCCCNS(=O)(=O)c1ccc(Br)cc1	160 to 161
CCOC(=O)C(COC(=O)COc1ccc(NC(=O)c2ccccc2-c2ccc(C(F)(F)F)cc2)c(C(=O)N(C)C)c1)(C(=O)OCC)c1ccccc1	132 to 138
Cc1cc2occ(C=O)c(=O)c2cc1C	154 to 156
Clc1ccc(OCC2CCCC(OC(CBr)c3ccc(Cl)cc3Cl)O2)c(Cl)c1 (stereo not given)	104 to 105
CC(C)CC(=O)C(=O)OCc1ccccc1	98 to 100
O=C(Nc1ccc(-n2nc(C(F)(F)F)cc2C(F)(F)F)cc1)c1ccccc1Oc1ccccc1	108 to 109
COC(=O)C(COC(C)=O)C(=O)OC(C)(C)C (stereo not given)	61 to 62
CN1CCC(OC2c3ccccc3CCn3c2nc(I)c3C(N)=O)CC1 (stereo not given)	85
CC(C)CC(NC(=O)OCc1ccccc1)C(=O)NC(Cc1ccc2ccccc2c1)C(=O)CSCc1ccco1 (stereo not given)	103 to 104
OCCc1ccc(OCC2CO2)cc1 (stereo not given)	56 to 58.5
CN(Cc1ccccc1)c1nc(=O)c2cccnc2s1	112 to 113
O=C(NC1CC1)c1ccc(N2CCNCC2)cc1	175 to 177
CN(C)C(=O)Cn1nc(-c2ccccc2O)nc1-c1ccccc1O	196 to 197
CCc1cccc(C)c1CNc1cc(Cl)nc(Cl)c1[N+](=O)[O-]	118 to 121
Cc1cc(C(F)(F)C(F)(F)F)ccc1NC(=O)c1cccc(I)c1C(=O)NC(C)C	195 to 196
Clc1[nH]ncc1-c1csc(Nc2ccccn2)n1	299 to 304
CC(=O)Nc1ccc(C(=O)O)cc1O	249
CN1C(C)(C)CC(N(CCCCCCN(C2CC(C)(C)N(C)C(C)(C)C2)P2OCC(C)(C)CO2)P2OCC(C)(C)CO2)CC1(C)C	103
C=C(C(=O)NCc1ccccc1)c1ccccc1	84 to 86
COC(=O)C1=C(C)Nc2c(c(C)nn2C)C1c1ccccc1[N+](=O)[O-] (stereo not given)	216 to 220

SMILES	melting point [°C]
CC(C)(C)c1cc(O)n[nH]1	205 to 206
COc1cc(C(=O)N2CCC(CCN3CCC(C(=O)c4nc5ccccc5n4Cc4ccc(F)cc4)CC3)(c3ccccc3)C2)cc(OC)c1OC (stereo not given)	107 to 109
Cc1oc(-c2ccccc2)nc1COc1cc(COc2ncccc2C=O)on1	90 to 91
CCC(CC)Oc1cc(C)nc(Nc2c(C)cc(C)cc2C)c1N	73 to 75
Nc1cccc(C(O)c2cc3c(Oc4ccc(Cl)cc4)cncc3s2)c1 (stereo not given)	73 to 78
O=C(NC(c1ccccc1)c1ccccc1)c1c[nH]cn1	201 to 202
C=CCN(CC=C)c1nc(NC(=O)c2ccco2)n2oc(=O)nc2n1	159 to 162
CC(=O)OCCCc1nc(-c2ccc(Cl)cc2)co1	37 to 37.5
CN(c1ccc(Br)cc1)c1nc(=O)c2cccnc2s1	221 to 222
N#CCCCN1CCC(Nc2nc3ccccc3n2Cc2ccc(F)cc2)CC1	130
COc1c(C=O)ccc2c1oc1ccccc12	178 to 180
O=c1[nH]c(=O)n2c3c(cccc13)CC2	314 to 315
COc1cc2oc(=O)cc(CN3CCC(OC)CC3)c2cc1OC	148 to 150
CNc1nc(-c2cccc(NC(=O)c3ccc(OCc4ccccc4)cc3)c2)c2cc(OC)c(OC)cc2n1	110 to 112
COc1ccc(Br)c(C=O)c1OC(C)=O	119 to 120
C=Cc1cnc(C)c(OC(=O)OCC)c1CSC(=O)OCC	142 to 145
O=C(O)c1cnc(Cn2cc(C3c4ccccc4C=Cc4ccccc43)c(=S)[nH]c2=O)s1	198 to 200
O=C(NCCO)c1cccc(-c2nccc3cc(Cc4cccc(C(F)(F)F)c4)oc23)c1	168 to 169
Cc1nc(NC(=O)c2ccc(F)cc2Cl)sc1C(=O)NCc1ccccc1	95 to 96
N#Cc1ccc2c(c1)CCN(C1CCC3(CC1)OCCO3)C2	127
O=C1CSC(C(=O)O)Cc2cc3c(cc21)OCCO3 (stereo not given)	208 to 209
CC(C)c1nc(CN2C(=O)C3(COc4cc5c(cc43)OCO5)c3cccc(C#N)c32)cs1 (stereo not given)	162 to 163

The remaining lines, values ahead:

melting point [°C]	SMILES
138 to 139	COc1ccc(/C=C/C(=O)c2cccc(O)c2)cc1OC
106	CCOC(=O)c1cc(=O)c2cc(C(=O)OCC)c(C(=O)OCC)nc2o1
185 to 188	C#Cc1ccnc(-c2cc(N)c(C#Cc3ccc(C(C)=S)cc3)cc2[N+](=O)[O-])c1
130 to 132	O=C(O)CN(CC(=O)O)C(=O)C(=O)c1ccc(OCCCCCCCCCCCCOc2ccccc2)cc1
69	CCOC(=O)CC(=O)C=Cc1ccc(OC)cc1
298 to 300	CCOCCn1cc2c(C3C(=O)Nc4ccc(Br)cc43)nc(NCC(C)O)nc2n1 (stereo not given)
> 275	O=C(O)c1cc(O)c2c(c1)C(=O)c1ccc(F)c(O)c1C2=O
158 to 159	OCc1cccc(Nc2ncc3c(n2)-c2ccccc2[C@H](c2ccccc2F)C3)c1
203	O=C(Oc1ccc2c(c1Cl)Sc1ccccc1N2)c1ccccc1
198 to 200	O=C(O)CCCCCNC(=O)c1cc2cc3c(cc2c2cc(OCc4ccccc4)ccc12)OCO3
> 250	CC(=O)c1cnn(O)c1-c1ccc(C(=O)O)cc1C
153 to 156	CON1CCC(C#N)(N(O)C(=O)Cc2cc(C)ccc2C)CC1
184 to 189	Nc1ccc(C(=O)N2CCOCC2)cc1[N+](=O)[O-]
190 to 195	COC(=O)c1ccc(CNC(=NC#N)NCCNC(=O)c2nc(Cl)c(N)nc2N)cc1
51 to 52	CCCCCCCCCCC(=O)c1ccncc1
99.9 to 100	CNN(NC)C(=S)Oc1cc(C)ccc1C(=O)OC
174 to 176	O=S(=O)(NCc1ccncc1)c1ccc(I)cc1
219 to 221	O=C(NCC1CC(=O)N(Cc2ccccc2)c2ccccc2N1C(=O)CN1C(=O)c2ccccc2C1=O)OCc1ccccc1 (stereo not given)
120 to 124	COc1ccccc1N1CCN(CCCNC(=O)c2cccc3c(=O)c(C)c(C4(C)CCCCC4)oc23)CC1

melting point [°C]	SMILES
196 to 197	CC(C)Oc1nccc2c1C(c1ccccc1C(F)(F)F)c1c(ccnc1OC(C)C)N2
163 to 165	O=C(O)c1ccccc1N1CCN(CC(O)COc2cccc3[nH]ccc23)CC1 (stereo not given)
228 to 229	COc1ccc(C2=NOC(C)(c3nnc(S)n3N)C2)cc1OC1CCCC1 (stereo not given)
183 to 186	Cc1cc2cc(CN(C)C)cnc2cc1NC(=O)c1ccc(-c2ccc(F)cc2)cc1
124 to 126	Cc1sc(C)c(CC#N)c1CC#N
48 to 49.5	COc1ccc(S(=O)(=O)CC(=O)C(C)C)cc1
51 to 53	OC(CCl)CNc1ccc(Cl)c(Cl)c1 (stereo not given)
157 to 160	CCn1cc(F)c(N=CN(C)C)nc1=O
166 to 172	COc1ccc(CCNC(=S)Nc2nc3ccccc3[nH]2)cc1
99.7	O=C(O)[C@@H]1CCc2cc(F)ccc2O1
127 to 128	COc1ccc(SC#N)c([N+](=O)[O-])c1
78 to 80	CCCCCCCN(CCCCCSc1nc(-c2ccc(OC)cc2)c(-c2ccc(OC)cc2)[nH]1)c1nc2ccccc2[nH]1
143 to 145	CCOc1ccc(C2=NC(=O)C(C)(C(C)C)N2)nc1 (stereo not given)
132 to 133	CC(C)(C)C(O)(CNc1ccc(Cl)c(Cl)c1)Cn1cncn1 (stereo not given)
197 to 201	O=c1c2c([nH]n1-c1ccc(Cl)cc1F)CCCCC2
194 to 196	CONC(=O)Nc1ccc(-c2sc3c(c2CN(C)CCc2ccccn2)c(=O)n(-c2ccccn2)c(=O)n3Cc2c(F)cccc2F)cc1
71 to 72	CCCC[Si](C)(C)CCSCCNC(=O)n1cc(F)c(=O)[nH]c1=O
240 to 242	Cc1nc(N)c2nc(C)n(NC3CCOCC3)c2c1C
84	CC(C)(C)C(O)C(CSc1ccc(Cl)cc1)n1cncn1 (stereo not given)

melting point [°C]	SMILES
128	O=C(/C=C/c1cccc(NC(=O)/C=C/c2ccc3c(c2)OCO3)c1)NO
275	CC(=O)Nc1ncc(/C=C/c2ncc(C(C)(C)C)o2)s1
237 to 239	CC1(C)CC(O)CC(C)(C)N1Cc1ccc(CN2C(C)(C)CC(O)CC2(C)C)cc1
184 to 186	CN1C(=O)C2(COc3cc4c(cc32)OCCO4)c2c(NS(C)(=O)=O)cccc21 (stereo not given)
70 to 71	CCCCCCCCCCCCCCc1c[nH]c(C=O)c1
95.5 to 97	CCN1CC(NC(=O)c2ccc(OCC=C(C)CCC=C(C)C)cc2)CN1CC
131 to 132	CCNC(=O)C(=O)NCC(OCC)OCC
116 to 117	CCC(Oc1ccccc1OC)C(=O)OC1CC(O)C=C2C=CC(C)C(CCC3CC(O)CC(=O)O3)C21 (mixture of isomers)
80 to 81	CCCCCCCCN(Cc1ccc(CN(CCCCCCCC)OC(=O)c2ccccc2)cc1)OC(=O)c1ccccc1
92 to 94	N#CSCCNc1c(Cl)cccc1[N+](=O)[O-]
38	CCOC=Nc1sccc1C#N
230 to 231	CCOC(=O)c1ccc(-c2nc3ccc(C)cn3c2CNC(=O)CC(C)C)cc1
227	COc1ccc(OCC(O)CN2CCC(Nc3nc4c(C)cccc4n3Cc3nc(C)ccc3O)CC2)cc1 (stereo not given)
125 to 129	CC(C(=O)O)c1ccc(N)cc1 (stereo not given)
223 to 225	CC(=O)OCC1OC(n2cc(Cc3ccc(Br)cc3)c3c(Cl)cccc32)C(OC(C)=O)C(OC(C)=O)C1OC(C)=O (stereo not given)
109 to 111	COCOc1cccc(CN(C)c2cnc(-c3ccccc3)c(-c3ccccc3)n2)c1
141 to 143	CCNC(=O)N(O)CC#Cc1cccc(C2=N[C@H](c3ccccc3)CO2)c1
> 250	N=C(N)c1ccc(C(=O)N2CCCC2CC(=O)NCCC(=O)O)cc1 (stereo not given)
